Data: patent publication US9834554B2, “BTK inhibitors” (MERCK SHARP & DOHME CORP., priority 2013, dated 2017)
Read-outs that look alike come from different tables or passages of the source.

Target: BTK enzyme (recombinant full-length BTK, hBTK) (Homo sapiens (Human), UniProt Q06187)
Assay: Btk enzyme activity assay, LANCE TR-FRET
[1] = read-out: BTK binding IC50, 50 pM hBTK, 2 μM biotin-A5-peptide, 25 μM ATP, 60 minute compound & enzyme incubation

Chain of BTK enzyme (recombinant full-length BTK, hBTK) (Q06187 whole entry): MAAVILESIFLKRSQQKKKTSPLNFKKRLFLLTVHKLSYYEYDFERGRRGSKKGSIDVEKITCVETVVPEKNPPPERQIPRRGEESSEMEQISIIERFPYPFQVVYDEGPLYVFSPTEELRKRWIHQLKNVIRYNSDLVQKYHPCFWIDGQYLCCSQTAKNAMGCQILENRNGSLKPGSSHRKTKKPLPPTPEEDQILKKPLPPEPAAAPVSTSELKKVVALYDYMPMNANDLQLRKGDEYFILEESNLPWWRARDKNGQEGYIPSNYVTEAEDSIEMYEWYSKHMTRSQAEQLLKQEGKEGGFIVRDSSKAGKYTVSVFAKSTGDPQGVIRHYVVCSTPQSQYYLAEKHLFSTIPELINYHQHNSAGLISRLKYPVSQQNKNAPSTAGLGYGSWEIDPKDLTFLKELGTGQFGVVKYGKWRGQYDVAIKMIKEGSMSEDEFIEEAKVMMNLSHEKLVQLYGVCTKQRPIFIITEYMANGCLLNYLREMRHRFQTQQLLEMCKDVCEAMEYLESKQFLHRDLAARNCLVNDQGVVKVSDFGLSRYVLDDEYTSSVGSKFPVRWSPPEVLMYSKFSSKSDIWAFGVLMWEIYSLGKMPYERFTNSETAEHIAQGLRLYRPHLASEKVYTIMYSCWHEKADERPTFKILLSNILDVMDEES
Experimental: Also BTK enzymatic activity was determined with the LANCE (Lanthanide Chelate Excite) TR-FRET (Time-resolved fluorescence resonance energy transfer) assay. […] Phosphorylation reactions were allowed to proceed for 120 minutes. […] After 60 minutes incubation with detection reagents, reaction plates were read on a PerkinElmer EnVision plate reader using standard TR-FRET protocol. Briefly, excitation of donor molecules (Eu-chelate:anti-phospho-antibody) with a laser light source at 337 nm produces energy that can be transferred to Dylight-650 acceptor molecules if this donor:acceptor pair is within close proximity. Fluorescence intensity at both 665 nm (acceptor) and 615 nm (donor) are measured and a TR-FRET ratio calculated for each well (acceptor intensity/donor intensity).
Btk Enzyme Activity Assay Method
BTK enzymatic activity was determined with the LANCE (Lanthanide Chelate Excite) TR-FRET (Time-resolved fluorescence resonance energy transfer) assay. […] Phosphorylation reactions were allowed to proceed for 120 minutes. […] After 60 minutes incubation with detection reagents, reaction plates were read on a PerkinElmer EnVision plate reader using standard TR-FRET protocol. Briefly, excitation of donor molecules (Eu-chelate:anti-phospho-antibody) with a laser light source at 337 nm produces energy that can be transferred to Dylight-650 acceptor molecules if this donor:acceptor pair is within close proximity. Fluorescence intensity at both 665 nm (acceptor) and 615 nm (donor) are measured and a TR-FRET ratio calculated for each well (acceptor intensity/donor intensity).

Row | IC50 | IC50 [1] | Structure (SMILES)
1 | 0.17 nM |  | Nc1nccc2c([C@@H]3CC[C@H]4CCC(=O)N4C3)nn(-c3ccc(C(=O)Nc4cc(C(F)(F)F)ccn4)cc3)c12 [Example 38, 4-{7-amino-3-[(6R,8aS)-3-oxooctahydroindolizin-6-yl]-1H-pyrazolo[3,4-c]pyridin-1-yl}-N-[4-(trifluoromethyl)pyridin-2-yl]benzamide]
2 |  | 2.8 nM | Nc1nccc2c([C@@H]3CC[C@H]4CCC(=O)N4C3)nn(-c3ccc(C(=O)Nc4cc(C(F)(F)F)ccn4)cc3OC3CC3)c12 [Example 39, 4-{7-amino-3-[(6R,8aS)-3-oxooctahydroindolizin-6-yl]-1H-pyrazolo[3,4-c]pyridin-1-yl}-3-(cyclopropyloxy)-N-[4-(trifluoromethyl)pyridin-2-yl] benzamide]
3 |  | 1.1 nM | COc1cc(C(=O)Nc2cc(C(F)(F)F)ccn2)ccc1-n1nc([C@@H]2CC[C@H]3CCC(=O)N3C2)c2ccnc(N)c21 [Example 40, 4-{7-amino-3-[(6R,8aS)-3-oxooctahydroindolizin-6-yl]-1H-pyrazolo[3,4-c]pyridin-1-yl}-3-methoxy-N-[4-(trifluoromethyl)pyridin-2-yl] benzamide]
4 |  | 0.44 nM | CCOc1cc(C(=O)Nc2cc(C(F)(F)F)ccn2)ccc1-n1nc([C@@H]2CC[C@H]3CCC(=O)N3C2)c2ccnc(N)c21 [Example 41, 4-{7-amino-3-[(6R,8aS)-3-oxooctahydroindolizin-6-yl]-1H-pyrazolo[3,4-c]pyridin-1-yl}-3-ethoxy-N-[4-(trifluoromethyl)pyridin-2-yl] benzamide]
